Test results reported in patent publication US6949513B2, “Polypeptides of covalently linked synthetic bioactive peptide analog(s) for treatment of cancer” (Dabur Research Foundation, priority 2001, dated 2005).
Positions of bridges follow the written chain, without caps; N, C: chain ends. Non-standard residues stand in square brackets, D forms with d. Residues, ends and D or L forms follow the SMILES beside them. Pen = CC(C)(S)[C@H](N)C(=O)O; Orn = NCCC[C@H](N)C(=O)O; Ac5c = NC1(C(=O)O)CCCC1; Aib = CC(C)(N)C(=O)O

Key:
KB (Oral) = assay: three day MTT cytotoxicity assay, KB; format: cell-based, human; conditions: 72 hours
Protocol: (§1) SEQ ID NO: 5 and SEQ ID NO: 7 were tested for cytotoxicity against 6 human tumor cell lines. Briefly, a three day MTT cytotoxicity assay was performed, which is based on the principle of uptake of MTT (3-(4,5-dimethylthiazol-2-yl)-2,5-diphenyl tetrazolium bromide), a tetrazolium salt, by the metabolically active cells where it is metabolized by active mitochondria into a blue colored formazan product that is read spectrophoto-metrically. MTT was dissolved in phosphate buffered saline with a pH of 7.4 to obtain an MTT concentration of 5 mg/ml; the resulting mixture was filtered through a 0.22 micron filter to sterilize and remove a small amount of insoluble residue. For each type of tumor cell, 20,000 to 50,000 cells were seeded in a 96-well culture plate and incubated with the drug in a CO2 incubator for 72 hours. The final concentration range of SEQ ID NO: 5 and SEQ ID NO: 7 was 1 nM to 10 μM. The drug was added at time 0, 24 and 48 hours. Control cells not treated with the drug were similarly incubated. The assay was terminated after 72 hours by adding 100 ug (20 ul) of MTT to each well, then incubating for additional one hour, and finally adding 50 ul of 10% SDS-0.01N HCl to each well to lyse the cells and dissolve formazan. After incubating for one hour, the plate was read spectrophotometrically at 540 nm and the cytotoxicity percentage calculated. The following Tables 1 and 2 show the dose response of SEQ ID NO: 5 and SEQ ID NO: 7 respectively along with their respective ED50 values on different tumor cell lines.

MiaPaCa.2 (Pancreas) = assay: three day MTT cytotoxicity assay, MiaPaCa.2; format: cell-based, human; conditions: 72 hours
Protocol: as §1

PTC (Colon) = assay: three day MTT cytotoxicity assay, PTC; format: cell-based, human; conditions: 72 hours
Protocol: as §1

L132 (Lung) = assay: three day MTT cytotoxicity assay, L132; format: cell-based, human; conditions: 72 hours
Protocol: as §1

MCF-7 (Breast) = assay: three day MTT cytotoxicity assay, MCF-7; format: cell-based, human; conditions: 72 hours
Protocol: as §1

MOLT-4 (Leukemia) = assay: three day MTT cytotoxicity assay, MOLT-4; format: cell-based, human; conditions: 72 hours
Protocol: as §1

[1] = system: PTC (colon) tumor xenografts; assay: antitumor activity on PTC (colon) tumor xenografts grown in nude mice; format: in vivo, Balb/c athymic mice; conditions: 50 μg twice a day (total 100 μg), 14 days, compared to untreated mice
Protocol: PTC (colon) tumor xenografts were initiated in Balb/c athymic mice by subcutaneous inoculation of a single cell suspension of PTC cells(15×10^6 cells/[…]). When the average tumor volume reached around 2000 mm^3 the tumor-bearing mice were divided into three groups of 3 animals each. Two groups were randomly assigned for SEQ ID NO: 5 and SEQ ID NO: 7 treatment while the third group served as control. SEQ ID NO: 5 and SEQ ID NO:7 were prepared at a concentration of 250 μg/ml so as to deliver a dose of 50 μg per 200 μl. The injections were given twice a day at 12 hour intervals so as to deliver a total dose of 100 μg. The treatment was continued daily for a period of 14 days. The anti-tumor activity of SEQ ID NO: 5 and SEQ ID NO: 7 was monitored by measuring tumor volumes every fourth day and calculating volumes using the formula 0.4×W^2×L (W=smaller dia, L=larger dia,).

trypsin = trypsin digestion of the polypeptide; format: in vitro ADME; conditions: trypsin 1:25 w/w, 37° C., pH 8.0-8.5
Protocol: On controlled digestion of the polypeptide peptide (SEQ ID NO:5), with enzyme trypsin, for ˜15 minutes, 3 major peaks were identifiable on analytical HPLC.
Briefly, the peptide was weighed, dissolved in NH4HCO3 buffer (pH 8.0) and mixed with freshly made enzyme trypsin (1 mg/ml in water) in a ratio of 1:25 (w/w) of enzyme: substrate, according to published protocol (Ref.: Methods in Mol. Bio., Vol. 32, Basic protein and peptide protocols, Enzymatic methods for cleaving proteins). The digestion mixture was incubated at 37° C. Aliquots were taken at different time points and analyzed on analytical HPLC (Shimadzu, Japan). The 15′ enzyme digest sample was picked up for analysis by MALDI-MS.

| SMILES | Percent cytotoxicity (KB (Oral); 1 nM) | Percent cytotoxicity (KB (Oral); 10 nM) | Percent cytotoxicity (KB (Oral); 100 nM) | Percent cytotoxicity (KB (Oral); 1 μM) | Percent cytotoxicity (KB (Oral); 10 μM) | Percent cytotoxicity (MiaPaCa.2 (Pancreas); 1 nM) | Percent cytotoxicity (MiaPaCa.2 (Pancreas); 10 nM) | Percent cytotoxicity (MiaPaCa.2 (Pancreas); 100 nM) | Percent cytotoxicity (MiaPaCa.2 (Pancreas); 1 μM) | Percent cytotoxicity (MiaPaCa.2 (Pancreas); 10 μM) | Percent cytotoxicity (PTC (Colon); 1 nM) | Percent cytotoxicity (PTC (Colon); 10 nM) | Percent cytotoxicity (PTC (Colon); 100 nM) | Percent cytotoxicity (PTC (Colon); 1 μM) | Percent cytotoxicity (PTC (Colon); 10 μM) | Percent cytotoxicity (L132 (Lung); 1 nM) | Percent cytotoxicity (L132 (Lung); 10 nM) | Percent cytotoxicity (L132 (Lung); 100 nM) | Percent cytotoxicity (L132 (Lung); 1 μM) | Percent cytotoxicity (L132 (Lung); 10 μM) | further results |
| --- | --- | --- | --- | --- | --- | --- | --- | --- | --- | --- | --- | --- | --- | --- | --- | --- | --- | --- | --- | --- | --- |
| CSCC[C@H](NC(=O)[C@H](CC(C)C)NC(=O)[C@H](CCCCN)NC(=O)[C@H](CCCCN)NC(=O)[C@H](CC(C)C)NC(=O)[C@H](Cc1c[nH]cn1)NC(=O)C(C)(C)NC(=O)[C@@H](NC(=O)[C@H](C)NC(=O)[C@H](Cc1c[nH]c2ccccc12)NC(=O)[C@H](CCC(N)=O)NC(=O)[C@@H](Cc1ccccc1)NC(=O)[C@H](CCCCN)NC(=O)[C@H](CCCCN)NC(=O)C1(NC(=O)[C@H](CC(C)C)NC(=O)[C@@H](Cc2c[nH]c3ccccc23)NC(=O)[C@H](Cc2ccccc2)NC(=O)[C@@H](Cc2c[nH]c3ccccc23)NC(=O)[C@H](CCC(N)=O)NC(=O)[C@@H](Cc2ccccc2)NC(=O)[C@@H]2CCCN2C(=O)[C@H](CCCCN)NC(=O)[C@@H]2CCCN2C(=O)[C@H](N)CCCNC(=N)N)CCCC1)C(C)C)C(=O)N[C@@H](Cc1ccc(O)cc1)C(=O)N1CCC[C@H]1C(=O)N[C@H](C(=O)N[C@@H](Cc1ccc(O)cc1)C(=O)N[C@@H](CC(C)C)C(=O)N[C@@H](CCCCN)C(=O)N[C@@H](CCCCN)C(=O)N[C@H](Cc1ccccc1)C(=O)N[C@H]1CSSC(C)(C)[C@@H](C(=O)N[C@H](C(N)=O)[C@@H](C)O)NC(=O)C2(CCCC2)NC(=O)[C@H](CCCN)NC(=O)[C@@H](Cc2c[nH]c3ccccc23)NC(=O)[C@H](Cc2ccc(O)cc2)NC1=O)[C@@H](C)O [SEQ ID NO: 7, P3-Lys-Lys-P2-Lys-Lys-P1-Lys-P4] (H-[dR]PKP[dF]Q[dW]F[dW]L[Ac5c]KK[dF]QWAV[Aib]HLKKLMYPTYLKK[dF]CY[dW][Orn][Ac5c][Pen]T-NH2; disulfide 34-39) | 13.9 ± 1.9 | 23.9 ± 1.8 | 34.8 ± 3.9 | 54.3 ± 5.8 | 82.8 ± 5.4 | 24.9 ± 2.8 | 22.9 ± 1.4 | 23.8 ± 2.9 | 28.8 ± 1.9 | 27.8 ± 2.8 | 13.5 ± 1.8 | 18.7 ± 0.5 | 23.5 ± 3.5 | 28.5 ± 2.1 | 17.9 ± 1.9 | 9.0 ± 0.6 | 10.4 ± 0.4 | 13.3 ± 0.1 | 14.9 ± 0.6 | 23.1 ± 0.9 | Percent cytotoxicity (MCF-7 (Breast); 1 nM): 18.9 ± 2.0; Percent cytotoxicity (MCF-7 (Breast); 10 nM): 19.0 ± 0.5; Percent cytotoxicity (MCF-7 (Breast); 100 nM): 22.9 ± 1.4; Percent cytotoxicity (MCF-7 (Breast); 1 μM): 23.6 ± 2.9; Percent cytotoxicity (MCF-7 (Breast); 10 μM): 31.4 ± 3.7; Percent cytotoxicity (MOLT-4 (Leukemia); 1 nM): 23.7 ± 1.6; Percent cytotoxicity (MOLT-4 (Leukemia); 10 nM): 34.9 ± 4.9; Percent cytotoxicity (MOLT-4 (Leukemia); 100 nM): 46.0 ± 4.9; Percent cytotoxicity (MOLT-4 (Leukemia); 1 μM): 54.3 ± 4.9; Percent cytotoxicity (MOLT-4 (Leukemia); 10 μM): 88.5 ± 6.8; Tumor regression [1]: 48.7% |
| CSCC[C@H](NC(=O)[C@H](CC(C)C)NC(=O)[C@H](CCCCN)NC(=O)[C@H](CCCCN)NC(=O)C1(NC(=O)[C@H](CC(C)C)NC(=O)[C@@H](Cc2c[nH]c3ccccc23)NC(=O)[C@H](Cc2ccccc2)NC(=O)[C@@H](Cc2c[nH]c3ccccc23)NC(=O)[C@H](CCC(N)=O)NC(=O)[C@@H](Cc2ccccc2)NC(=O)[C@@H]2CCCN2C(=O)[C@H](CCCCN)NC(=O)[C@@H]2CCCN2C(=O)[C@@H](CCCNC(=N)N)NC(=O)[C@H](CCCCN)NC(=O)[C@H](CCCCN)NC(=O)[C@@H](NC(=O)[C@H]2NC(=O)C3(CCCC3)NC(=O)[C@H](CCCN)NC(=O)[C@@H](Cc3c[nH]c4ccccc34)NC(=O)[C@H](Cc3ccc(O)cc3)NC(=O)[C@@H](NC(=O)[C@H](N)Cc3ccccc3)CSSC2(C)C)[C@@H](C)O)CCCC1)C(=O)N[C@@H](Cc1ccc(O)cc1)C(=O)N1CCC[C@H]1C(=O)N[C@H](C(=O)N[C@@H](Cc1ccc(O)cc1)C(=O)N[C@@H](CC(C)C)C(=O)N[C@@H](CCCCN)C(=O)N[C@@H](CCCCN)C(=O)N[C@H](Cc1ccccc1)C(=O)N[C@@H](CCC(N)=O)C(=O)N[C@@H](Cc1c[nH]c2ccccc12)C(=O)N[C@@H](C)C(=O)N[C@H](C(=O)NC(C)(C)C(=O)N[C@@H](Cc1c[nH]cn1)C(=O)N[C@@H](CC(C)C)C(N)=O)C(C)C)[C@@H](C)O [SEQ ID NO: 5, P4-Lys-Lys-P3-Lys-Lys-P1-Lys-P2] (H-[dF]CY[dW][Orn][Ac5c][Pen]TKK[dR]PKP[dF]Q[dW]F[dW]L[Ac5c]KKLMYPTYLKK[dF]QWAV[Aib]HL-NH2; disulfide 2-7) | 10.6 ± 1.2 | 18.2 ± 1.9 | 30.7 ± 3.9 | 43.1 ± 5.3 | 98.3 ± 5.7 | 24.2 ± 2.7 | 37.8 ± 4.6 | 48.2 ± 4.8 | 59.6 ± 4.9 | 84.5 ± 6.3 | 16.5 ± 1.6 | 14.2 ± 2.2 | 16.8 ± 1.0 | 21.7 ± 2.9 | 27.9 ± 2.8 | 20.5 ± 3.2 | 21.5 ± 3.9 | 22.2 ± 2.8 | 28.2 ± 3.1 | 48.8 ± 3.6 | Percent cytotoxicity (MCF-7 (Breast); 1 nM): 29.7 ± 3.8; Percent cytotoxicity (MCF-7 (Breast); 10 nM): 28.2 ± 4.3; Percent cytotoxicity (MCF-7 (Breast); 100 nM): 35.3 ± 4.8; Percent cytotoxicity (MCF-7 (Breast); 1 μM): 59.4 ± 4.8; Percent cytotoxicity (MCF-7 (Breast); 10 μM): 85.4 ± 5.0; Percent cytotoxicity (MOLT-4 (Leukemia); 1 nM): 10.4 ± 0.7; Percent cytotoxicity (MOLT-4 (Leukemia); 10 nM): 18.7 ± 1.9; Percent cytotoxicity (MOLT-4 (Leukemia); 100 nM): 34.7 ± 4.7; Percent cytotoxicity (MOLT-4 (Leukemia); 1 μM): 54.3 ± 5.2; Percent cytotoxicity (MOLT-4 (Leukemia); 10 μM): 94.5 ± 6.1; Tumor regression [1]: 73.7%; time in which the polypeptide disappeared completely on incubation with trypsin (trypsin): ~5 h |
